Measured values published in the SangsterLogP compilation.

Assay: method code SF-AS, from DOI: 10.1016/0045-6535(95)00342-8

| Compound | logP |
| --- | --- |
| COCCOC(=O)CSc1ccccc1 | 1.02 |
| CC(C)OC(=O)CC(CSc1ccccc1)C(=O)OC(C)C (stereo not drawn) | 3.95 |
| CC(C)OC(=O)CC(Sc1ccccc1)C(=O)OC(C)C (stereo not drawn) | 3.53 |
| CCOC(=O)CC(CSc1ccccc1)C(=O)OCC (stereo not drawn) | 2.98 |
| CCOC(=O)CC(Sc1ccccc1)C(=O)OCC (stereo not drawn) | 2.6 |
| CCCOC(=O)CSc1ccccc1 | 2.69 |
| CCOCCOC(=O)CSc1ccccc1 | 1.73 |
| CCCCOC(=O)CSc1ccccc1 | 3.26 |

More lines, now with the values ahead:

| logP | Compound |
| --- | --- |
| 2.63 | COC(=O)C(C)CSc1ccccc1 (stereo not drawn) |
| 3.02 | CC(C)COC(=O)CSc1ccccc1 |
| 2.53 | CC(C)OC(=O)CSc1ccccc1 |
| 2.04 | COC(=O)CCSc1ccccc1 |
| 1.42 | COC(=O)CC(Sc1ccccc1)C(=O)OC (stereo not drawn) |
| 1.96 | COC(=O)CC(CSc1ccccc1)C(=O)OC (stereo not drawn) |
| 2.61 | COC(=O)CC(C)Sc1ccccc1 (stereo not drawn) |
| 2.12 | CCOC(=O)CSc1ccccc1 |
| 2.72 | CCOC(=O)CCSc1ccccc1 |
| 1.5 | COC(=O)CSc1ccccc1 |
